One data set relates to PARP1. The note with it: cited from earlier work; for maximum standardized uptake values (SUVmax): clinical PET.
Details of data set [1]: method as in PMID 27841728, PMID 28222073. The conditions noted are these: cited from earlier work.
On the set-up of data set [2]: method as in PMID 27841728, PMID 27261505. The conditions noted are these: cited from earlier work.
The conditions of data set [3]: mice; cited from earlier work.
The next data set concerns NB-EBC1x tumor. As to the kind of experiment: Biodistribution, autoradiography and tumor dosimetry in NB-EBC1x tumor-bearing mice. Type of data set: in vivo, female SCID CB17 mice. The note with it: 1 hour. As for the experimental part: At various time points mice were euthanized and tissues were harvested, weighed, and assayed for radioactivity by gamma counter. Decay corrected data presented as percent injected dose per gram of tissue (%ID/g). Human dosimetry was calculated using OLINDA/EXM software by fitting time activity curves for biodistribution data. Tissue autoradiography was performed by freezing excised tumors at 1 h postinjection of each respective treatment. One tumor was collected for each treatment group. Tumors were cryosectioned (Leica Cryotome) at a thickness of 20 µm. Each section was collected with a 200 µm gap and a total of three sections were collected for each tumor. Sections were then exposed to a phosphorfilm for 60 h and films were read on a Cyclone Plus phosphorimager (Perkin Elmer). Experimental conditions have been included in the Supplementary Methods.
Animal studies were performed in female mice due to the lack of sex-related differences for [^211At]PTT tolerability from initial dose response studies performed in female and male mice. Female mice were chosen due to their underlying behavior towards other study subjects that reduced nonstudy-related causes for decreased wellness. Pre-clinical efficacy studies were performed through “single mouse testing” to more closely recapitulate a clinical trial. […] Number size for treatment groups was determined by model tumor growth reproducibility, which was previously shown to have less than 5% normal variation with at least two animals. Statistical tests for tumor response and event-free survival (EFS) were performed as a grouped analysis that included all tumor models treated at each respective dose level (n = 2 per model per dose level). Statistical differences between treatment groups for tumor response was performed by paired-model T-test that compared reduction in tumor volume for the 36 MBq/kg dose level vs. 24 MBq/kg or 12 MBq/kg. Event free survival was measured by area over the curve method to quantify time to event, which was set as tumor growth exceeding 2 cm[3],[19]. Differences in EFS were tested across all treated models for each respective dose level, and against untreated controls, by paired-model ANOVA analysis. Associations of drug target expression and response were performed by linear regression analysis of EFS and PARP1 mRNA expression. Genetic signatures were visually presented as a function of EFS and no statistical tests were applied. Blood and marrow toxicity studies were performed with n = 5 sample sizes and powered to detect >20% differences between untreated controls and treated animals. Results were tested for significance by one-way ANOVA comparison from untreated controls. Marrow colony formation assays were performed in replicates of 2 for each mouse subject, dependent on marrow isolation, and all replicates are included in final analyses. Statistical analysis was performed by ordinary one-way ANOVA comparison between the mean of control and test groups. Biodistribution studies were performed with n = 3 mice per time-point. Human dosimetry was calculated using OLINDA/EXM v1.1 software by fitting time activity curves for biodistribution data in a healthy mouse model. Tumor dosimetry was calculated by OLINDA/EXM v1.1 by fitting time activity curves for NB-EBC1 tumors from biodistribution data. All statistical analyses were performed in GraphPad Prism version 9.3.1 unless indicated otherwise.

For data set [4] the following is noted: in vitro; ref previously shown by the authors, no reference given; cited from earlier work.
The subject of a further data set is neuroblastoma. The conditions noted are these: cited from earlier work.
Details of data set [5]: method as in PMID 28408529. The note with it: cited from earlier work.

The values below come from PMC9671962 (Communications Biology, 2022).

Where two headings read alike, the source gives them in different places.

Regarding `O=C1NCCn2c(-c3ccc(OCC[18F])cc3)nc3cccc1c32` [[^18F]FTT, fluorine-18 Fluorthanatrace], the estimated kidney dose in the data set with PARP1 (adults) was 0.018–0.027 mGy/MBq. Also, the entries for the “maximum standardized uptake values (SUVmax)” value in the data set on PARP1 (breast cancer) and with PARP1 (ovarian cancer) were 4–7 and 2–9, respectively. For the same compound, the “time of rapid tumor uptake kinetics post injection” value in the data set with PARP1 (ovarian cancer patients, minimal wash-out) is 60 to 180 min. Besides, the “hepatobiliary clearance, share of blood clearance” value in data set [1] is recorded as over 90%. Also, the thyroid uptake result in data set [2] was “around 4 % ID/g”.

Take `CNCc1ccc(-c2[nH]c3cc(F)cc4c3c2CCNC4=O)cc1` [rucaparib]: the “hepatobiliary clearance, share of blood clearance” value in data set [1] is reported as over 90%.

Consider `[211At]` [free astatine-211, astatine-211, reference compound], for which, in data set [3], the “MTD for a single dose” value is “greater than 50 MBq/kg”. Moreover, the “tumor uptake compared to [^211At]PTT” value with NB-EBC1x tumor (2-way ANOVA p value 0.0088) was “lower uptake in tumor”. Moreover, the “thyroid uptake compared to [^211At]PTT” value in the data set on NB-EBC1x tumor (2-way ANOVA p-value 0.0004) is on record as “significantly higher uptake in thyroid”. In addition, the “potency relative to [211At]PTT in vitro” value in data set [4] is under 100 times.

As for `N=C(N)NCc1cccc([131I])c1` [[^131I]MIBG, iodine-131-metaiodobenzylguanidine], the overall survival benefit result in the data set with neuroblastoma is “below 40%”.

As for `O=C([O-])CC[C@H](NC(=O)N[C@@H](CCCCNC(=O)[C@H](Cc1ccc2ccccc2c1)NC(=O)C1CCC(CNC(=O)CN2CCN(CC(=O)[O-])CCN(CC(=O)[O-])CCN(CC(=O)[O-])CC2)CC1)C(=O)[O-])C(=O)[O-].[225Ac].[H+].[H+].[H+]` (stereo partly shown) [[^225Ac]PSMA-617], the kidney dose in data set [5] is 740 mSv/MBq.
